Experimental data published in patent US5189169A (priority 1991, dated 1993).
“And” between values parts separate entries of the source, which are not always exact repeats. Identical values can stand only once.

Legend:
[1] = test system: three broadleaf weeds (morning glory, mustard, velvetleaf); set-up: species or system Ipomoea purpurea, Brassica kaber, Abutilon theophrasti; conditions: in vivo
yellow nutsedge [2] = test system: yellow nutsedge; set-up: species or system Cyperus esculentus; conditions: in vivo
yellow nutsedge [3] = test system: yellow nutsedge; set-up: species or system Cyperus esculentus; conditions: in vivo; remark: listed apart in the source
[4] = test system: three grassy weeds (wild oat, watergrass, foxtail); set-up: species or system Avena fatua, Echinochloa crusgalli, Setaria viridis; conditions: in vivo
[5] = test system: three broadleaf weeds (morning glory, mustard, velvetleaf); set-up: species or system Ipomoea purpurea, Brassica kaber, Abutilon theophrasti; conditions: in vivo; remark: listed apart in the source
[6] = test system: three grassy weeds (wild oat, watergrass, foxtail); set-up: species or system Avena fatua, Echinochloa crusgalli, Setaria viridis; conditions: in vivo; remark: listed apart in the source
[7] = test system: four grassy weeds: wild oat, watergrass, green foxtail and crabgrass; experiment: Pre-emergence herbicidal activity, grassy weeds (Table III); type: in vivo; conditions: 2.24 kg/ha, 2-3 weeks after treatment
Protocol: (§1) The herbicidal effect was observed by comparing the extent of weed control in test flats treated with the compounds against that occurring in similar non-treated control flats. All were applied at 3.57 lb/A (4 kg/ha) to pre-emergence and post-emergence screening flats. An 80 gal/A (748.3 1/ha) spray volume was utilized. Post-emergence flats were seeded 12 days prior to treatment. Pre-emergence flats were seeded one day prior to treatment. Overhead watering of pre-emergence flats and soil surface watering of post-emergence flats, so as to avoid wetting the foliage, were carried out for the duration of the test.
(§2) Weed seeds were planted in a flat at a seed depth of 0.5 inch (1.3 cm). Soil for flats was prepared using loam soil fortified with 17-17-17 fertilizer (N-P2 O5 -K2 O on a weight basis) and Captan 80W fungicide. The test weeds were as follows:
(§3) The spray solutions were prepared by dissolving 240 mg of test compound in 20 ml of acetone containing 1% polyoxyethylene sorbitan monolaurate emulsifier, then adding 20 ml of water to the resulting solution. The spray solutions were applied using a linear spray table. Pre-emergence flats are raised to the level of the post-emergence foliage canopy by setting the flats on a wooden block.
(§4) The degree of weed control was visually assessed and recorded as percentage control compared to the growth of the same species in an untreated check flat of the same age. The rating scale ranges from 0 to 100%, where 0 equals no effect with plant growth equal to the untreated control, and 100 equals complete kill.
(§5) Compounds 68 to 145 in Table I were tested generally similarly to Compounds No. 1 to 67 with the following differences: The rate of application was 2 lb/acre (2.24 kg/ha), no 6-day evaluations were made, and the weeds were:
Four grassy weeds: wild oat, watergrass, green foxtail and crabgrass (Digitaria sanguinalis);
(§6) Ratings were taken 2-3 weeks after treatment.

[8] = test system: three broadleaf weeds: wild mustard, redroot pigweed and curly dock; experiment: Post-emergence herbicidal activity, broadleaf weeds (Table III); type: in vivo, Brassica kaber, Amaranthus retroflexus, Rumex crispus; conditions: 2.24 kg/ha, 2-3 weeks after treatment
In short: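 Flats sprayed at 3.57 lb/A (4 kg/ha), or 2 lb/acre (2.24 kg/ha) for a later compound set, in 80 gal/A; pre-emergence flats seeded 1 day, post-emergence 12 days before treatment. Control visually scored 0-100% versus untreated flats, 2-3 weeks after treatment.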

[9] = test system: three broadleaf weeds: wild mustard, redroot pigweed and curly dock; experiment: Pre-emergence herbicidal activity, broadleaf weeds (Table III); type: in vivo, Brassica kaber, Amaranthus retroflexus, Rumex crispus; conditions: 2.24 kg/ha, 2-3 weeks after treatment
Protocol: as §1, §2, §3, §4, §5
Three broadleaf weeds: wild mustard, redroot pigweed (Amaranthus retroflexus) and curly dock (Rumex crispus).
as §6

[10] = test system: four grassy weeds: wild oat, watergrass, green foxtail and crabgrass; experiment: Post-emergence herbicidal activity, grassy weeds (Table III); type: in vivo; conditions: 2.24 kg/ha, 2-3 weeks after treatment
In short: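 Sprayed at 3.57 lb/A (4 kg/ha), some compounds at 2 lb/acre (2.24 kg/ha), from acetone–water with emulsifier; post-emergence flats seeded 12 days, pre-emergence flats 1 day before treatment. Visual % control versus untreated check (0 = no effect, 100 = complete kill), rated 2–3 weeks after treatment.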

SMILES | % Control, Pre-emergence, BL avg. [1] | % Control, Pre-emergence, NS (yellow nutsedge [2]) | % Control, Post-emergence, NS (yellow nutsedge [3]) | % Control, Pre-emergence, GR avg. [4] | % Control, Post-emergence, BL avg. [5] | % Control, Post-emergence, GR avg. [6] | % Control, Pre-Emergence, GR Avg. [7] | % Control, Post-Emergence, BL Avg. [8] | % Control, Pre-Emergence, BL Avg. [9] | % Control, Post-Emergence, GR Avg. [10]
CCCCSP(=O)(N(CCC)CCC)N(CCC)CCC [Compound 1] | 50% | 0% | 10% and 5% | 2% | 90% and 100% | 90% and 85% |  |  |  | 
CCCSP(=O)(N(CC)CCC(C)C)N(CC)CCC(C)C [Compound 51] | 8% | 0% | 0% | 0% | 95% and 100% | 70% and 45% |  |  |  | 
CCCN(CCC)P(=O)(SC(C)(C)C)N(CCC)CCC [Compound 3] | 100% | 0% | 5% and 0% | 0% | 80% and 100% | 80% and 70% |  |  |  | 
CCCSP(=O)(N(CCC)CCC)N(C)c1ccc(Cl)cc1 (stereo not drawn) [Compound 16] | 0% | 0% | 0% | 0% | 43% and 73% | 33% and 47% |  |  |  | 
CCCSP(=O)(N(CCC)CCC)N(CCC)c1ccc(C(C)C)cc1 (stereo not drawn) [Compound 59] | 0% | 0% | 0% | 0% | 50% and 55% | 10% and 6% |  |  |  | 
CCCSP(=O)(N(CCC)CCC)N(CCC)c1ccccc1 (stereo not drawn) [Compound 25] | 33% | 0% | 0% | 0% | 50% and 67% | 50% and 67% |  |  |  | 
CCCSP(=O)(N(CCC)CCC)N(C)c1ccc(F)c(Cl)c1 (stereo not drawn) [Compound 31] | 0% | 0% | 0% | 0% |  | 10% and 5% |  |  |  | 
CCCSP(=O)(N(CCC)CCC)N(C)c1cccnc1 (stereo not drawn) [Compound 40] | 0% | 0% | 0% | 0% | 70% | 10% |  |  |  | 
CCCSP(=O)(N(CCC)CCC)N(C)c1ccc(Cl)cc1C (stereo not drawn) [Compound 62] | 0% | 0% | 0% | 0% | 75% and 76% | 30% and 33% |  |  |  | 
CCCSP(=O)(N(CCC)CCC)N(C)c1c(F)c(F)cc(F)c1F (stereo not drawn) [Compound 53] | 10% | 0% | 0% | 0% | 100% | 75% and 43% |  |  |  | 
CCCCN(CC(C)C)P(=O)(SCCC)N(CCCC)CC(C)C [Compound 50] | 0% | 0% | 0% | 0% | 85% and 70% | 90% and 77% |  |  |  | 
CCCN(CCC)P(=O)(Sc1ccccc1C)N(CCC)CCC [Compound 5] | 0% | 0% | 0% | 0% | 40% and 33% | 40% and 27% |  |  |  | 
CCCSP(=O)(N(CCC)CCC)N(C)c1ccc(Cl)c(Cl)c1 (stereo not drawn) [Compound 20] | 0% | 0% | 5% and 0% | 0% | 50% and 67% | 20% and 13% |  |  |  | 
CCCSP(=O)(N(CCC)CCC)N(C)c1ccccc1 (stereo not drawn) [Compound 27] | 0% | 0% | 0% and 5% | 0% |  | 20% and 40% |  |  |  | 
CCCSP(=O)(N(CCC)CCC)N(C)c1ccccc1F (stereo not drawn) [Compound 33] | 0% | 0% | 0% | 0% |  | 5% and 0% |  |  |  | 
CCCSP(=O)(N(CC)CC)N(C(C)C)C(C)C (stereo not drawn) [Compound 29] | 0% | 0% | 0% | 0% |  | 10% and 7% |  |  |  | 
CCCCN(CCCC)P(=O)(SCCC)N(C(C)C)C(C)C (stereo not drawn) [Compound 28] | 0% | 0% | 0% | 0% |  | 10% and 7% |  |  |  | 
CCCSP(=O)(N(CCC)CCC)N(C)c1ccc(F)cc1 (stereo not drawn) [Compound 32] | 0% | 0% | 0% | 0% |  | 10% and 3% |  |  |  | 
CCCSP(=O)(N(CCC)CCC)N(C)c1cc(OC)cc(OC)c1 (stereo not drawn) [Compound 43] | 0% | 0% | 0% | 0% |  | 10% |  |  |  | 
CCCN(CCC)P(=O)(SC(C)CC)N(CCC)CCC (stereo not drawn) [Compound 80] |  |  |  |  |  |  | 25% | 100% | 53% | 80%
